One data set concerns trypsin. To be noted: incubation with trypsin enzyme (enzymes present in the gastrointestinal tract), in vitro. How it is done: FIG. 11—Representation of the fragments obtained at the different incubation times with the enzyme trypsin. Analysis performed by mass spectrometry, MALDI. The first spectrum, marked with the letter A, refers to the time of 15 minutes; the second spectrum marked with the letter B indicates the time of 30 minutes; C indicates the time of 2 hour2; D indicates the time of 4 hours; and, finally, E is the control peptide (SEQ ID NO: 6).
FIG. 12—Representation of the fragments obtained at the different incubation times with the enzyme trypsin. Analysis performed by mass spectrometry, MALDI.
By means of this experiment it was possible to try to observe the in vitro peptide digestion by the enzyme present in the organism.

Data set [1] has as its system Swiss mice. Nature of the data set: Hot Plate nociception test in mice. The data set is classed as in vivo, Mus musculus. To be noted: i.p. in mice, dose based on dose and molarity of morphine 10 mg/kg (Leu-enkephalin 19.3 mg/kg), followed 120-240 min. How it is done:
(§1) In vivo analyzes: Tests were carried out on Swiss mice of the Mus musculus species, in which nociception tests (Hot Plate and Tail Flick) were used according to Le Bars et al. (2001). Injections were administered via intraperitoneal (IP). Doses were based upon dose and molaridade of the morphine (10 mg/kg animal).
To initiate the nociceptive tests and verify the efficiency of the same, a pilot experiment was carried out using the peptide sequence SEQ ID NO: 2 and evaluating the behavior of the animals in the course of two hours.

In data set [2] the test system is Swiss mice. The data set is described as follows: Tail Flick nociception test in mice. To be noted: i.p. in mice, 240 min. The data set is classed as in vivo, Mus musculus. How it is done: as §1
In another data set the target is immobilized pepsin (Homo sapiens, UniProt P0DJD8). To be noted: 4 hours, 37° C., 1400 RPM.
Sequence of immobilized pepsin (P0DJD8 63-388): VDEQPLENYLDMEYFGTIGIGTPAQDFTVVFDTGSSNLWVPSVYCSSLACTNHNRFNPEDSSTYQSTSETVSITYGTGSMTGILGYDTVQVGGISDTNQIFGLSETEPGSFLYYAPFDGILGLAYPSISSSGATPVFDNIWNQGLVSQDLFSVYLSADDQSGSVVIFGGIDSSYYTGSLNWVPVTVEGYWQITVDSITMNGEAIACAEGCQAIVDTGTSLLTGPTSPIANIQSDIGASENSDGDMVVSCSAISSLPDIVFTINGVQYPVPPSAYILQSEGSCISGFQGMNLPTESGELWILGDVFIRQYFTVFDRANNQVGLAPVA

Ends that are not written are not given here.

Protocol for immobilized pepsin: Digestion of the immobilized pepsin precursor: the peptide sequence SEQ ID NO: 6 was digested using immobilized pepsin for a period of 4 hours at 37° C. under agitation of 1400 RPM evaluating the fragmentation index at the times of 15 minutes, 30 minutes, 2 hours and 4 hours.
The peptide sequence SEQ ID NO: 6 was digested using immobilized pepsin for a period of 4 hours, evaluating the fragmentation index at the times of 15 minutes, 30 minutes, 2 hours and 4 hours.
Enkephalin (Leu) was digested using immobilized pepsin for a period of 4 hours, evaluating the fragmentation index at the times of 30 minutes, 1 hour, 2 hours and 4 hours.

Consider `CC(C)C[C@H](NC(=O)[C@H](Cc1ccccc1)NC(=O)CNC(=O)CNC(=O)[C@@H](N)Cc1ccc(O)cc1)C(=O)O` [Leu-enkephalin, reference compound], for which, in the data set with trypsin, the “intensity of the major peak during incubation” value was “reducing”.

Consider “SEQ ID NO: 2: synthetic opioid peptide of the formula TyrGlyGly-X1-X2-X3-X4; sequence not printed in the text (YGGTGAH)”, for which the “antinociceptive (opioid) activity, latency index” value with Swiss mice [1] is “delayed and prolonged activity”.

For the molecule “SEQ ID NO: 3: synthetic opioid peptide of the formula TyrGlyGly-X1-X2-X3-X4; sequence not printed in the text (YGGEGVQ)”, the “antinociceptive (opioid) activity, latency index” value in the data set with Swiss mice [1] was “possible to visualize the activity”. The “antinociceptive activity, latency index” value with Swiss mice [2] is given as “possible to visualize the activity”.

With “SEQ ID NO: 4: synthetic opioid peptide of the formula TyrGlyGly-X1-X2-X3-X4; sequence not printed in the text (YGGTTGT)”, the “antinociceptive (opioid) activity, latency index” value in the data set with Swiss mice [1] is on record as “antinociception activity”. The “antinociceptive activity, latency index” value in the data set on Swiss mice [2] is on record as “antinociception activity”.

“SEQ ID NO: 5: synthetic opioid peptide of the formula TyrGlyGly-X1-X2-X3-X4; sequence not printed in the text (YGGEGEQ)”: the “antinociceptive (opioid) activity, latency index” value in the data set with Swiss mice [1] is “antinociceptive”. In addition, the “antinociceptive activity, latency index” value in the data set with Swiss mice [2] was “antinociceptive”.

In the case of YGGTAGAHGTY [SEQ ID NO: 6], the “intensity of the major peak during incubation” value in the data set with trypsin is on record as “reducing”. Besides, the “fragmentation index (precursor ion and lower mass ions over time)” value at immobilized pepsin was “increase in the intensity of the lower mass ions over time and the decrease of the precursor ion”.
